Data on two compounds can be found in patent US8906868B2, “Aminoglycoside derivatives” (Rempex Pharmaceuticals, Inc., priority 2010, dated 2014).

The test system of one data set is ACM1006 acc(6′)-Ib. In words: microbe, parasite or virus in culture. The class given is cell-based, Acinetobacter baumannii. The note with it: Acinetobacter baumannii. The method in brief:
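Using 2-fold compound series and a 5×10^5 CFU/ml inoculum in CaMHB, plates incubate 18 h at 35° C; growth inhibition is read as turbidity at 600 nm and verified visually.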

In a further data set the test system is various bacteria. Kind of data set: MICs of 44 and 45, representative strains and strains expressing aminoglycoside modifying enzymes. Format: cell-based. The note with it: Tables 7 and 8, frequently. How it is done: To compare microbiological activity of the test compounds, minimum inhibitory concentrations (MIC.s) were determined. Antibiotic MICs were obtained using the broth microdilution method according to Clinical and Laboratory Standards Institute (CLSI) approved guidelines (Methods for dilution antimicrobial susceptibility tests for bacteria that grow aerobically; approved standard—7th ed. CLSI document M7-A7. Clinical and Laboratory Standards Institute, Wayne, Pa., incorporated herein by reference in its entirety). Antibiotics were dissolved as specified by CLSI (Performance standards for antimicrobial susceptibility testing; Seventeenth informational supplement. CLSI document M100-S17. Clinical and Laboratory Standards Institute, Wayne, Pa., incorporated herein by reference in its entirety), and were serially diluted 2-fold in cation adjusted Mueller Hinton Broth (CaMHB) at 2× concentration. Bacterial inoculums were prepared in CaMHB by suspension of a colony from an agar plate that was prepared the previous day to obtain a final concentration of 5×10^5CFU/ml. The plates were incubated for 18 hours at 35° C. […] MIC.s were determined by reading the turbidity of plate wells using a SpectraMax Plus384 plate reader (Molecular Devices, Sunnyvale, Calif., USA) at 600 nm and were confirmed by visual inspection.

A further data set deals with rats. Kind of data set: Nephrotoxicity of test compounds in rats. The note with it: once daily subcutaneous.
Setting [1] is: Table 4, read-out: Compound MIC on Bacterial Strains: Acinetobacter baumannii ACM1006 acc(6′)-Ib.
The mark [2] stands for this setting: Table 8, read-out: MIC Acinetobacter baumannii ACM1006 aac(6′)-Ib.

In brackets after ≈: the same amount, converted by molar mass. Like-named read-outs stand apart in the source and are kept apart here.

In the case of `CN[C@@H]1C(O)[C@@H](OC2C(O)C(O[C@H]3O[C@H](CNC[C@@H](O)CO)CCC3N)[C@@H](N)C[C@H]2NC(=O)[C@@H](O)CN)OCC1(C)O` (stereo partly drawn) [Compound 44], the MIC in the data set with ACM1006 acc(6′)-Ib (setting [1]) and in the data set on ACM1006 acc(6′)-Ib (setting [2]) was 1 to 8 µg/mL (≈ 1.64 to 13.1 µM) in each case. Moreover, in the data set on various bacteria, the “fold more active than 45 (MIC)” value is on record as 2- to 4 fold. For the same compound, the “Histopathology Results After 7 days of Dosing” value in the data set on rats (30 mg/kg/day) and in the data set on rats (60 mg/kg/day) was “No change” throughout. Also, the “Histopathology Results After 14 days of Dosing” value with rats (30 mg/kg/day) is on record as “No change”; in the data set with rats (60 mg/kg/day), “Minimal Hyaline-droplet”.

As for `CN[C@@H]1[C@@H](O)[C@@H](O[C@@H]2[C@@H](O)[C@H](O[C@H]3O[C@H](CNC[C@H](O)CO)CC[C@H]3N)[C@@H](N)C[C@H]2NC(=O)[C@@H](O)CN)OC[C@]1(C)O` [Compound 45, (S)-3-amino-N-((1R,2S,3S,4R,5S)-5-amino-4-((2R,3R,6S)-3-amino-6-(((S)-2,3-dihydroxypropylamino)methyl)tetrahydro-2H-pyran-2-yloxy)-2-((2R,3R,4R,5R)-3,5-dihydroxy-5-methyl-4-(methylamino)tetrahydro-2H-pyran-2-yloxy)-3-hydroxycyclohexyl)-2-hydroxypropanamide], the MIC in the data set on ACM1006 acc(6′)-Ib (setting [1]) and in the data set on ACM1006 acc(6′)-Ib (setting [2]) was 1 to 8 µg/mL (≈ 1.64 to 13.1 µM) in each case.
